Measurements taken from the supplement of paper PMC11061612.

What was measured:
Test in all cases: combination Emax (second highest fraction inhibited in the dose matrix, 72 h); higher = more inhibition; extreme values may be limits of the assay
[1] = test system: CAMA-1 (Breast Carcinoma)
Method in brief: (§1)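 Bliss excess equals the observed combination effect minus the expected value EA + EB − EA·EB, where EA and EB are the effects of each agent alone. Combination Emax is the second-highest inhibition within the matrix. Inhibition was scaled from CellTiter-Glo 2.0 luminescence, with 0 set by vehicle wells and 1 by blank wells, after 72 hours of two-drug dosing of cells plated in 1536-well plates.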

[2] = test system: COLO-678 (Colorectal Carcinoma)
Method in brief: as §1

[3] = test system: DND-41 (T-Lymphoblastic Leukemia)
Method in brief: as §1

[4] = test system: DiFi (Colorectal Carcinoma)
Method in brief: as §1

ES1 (Ewing's Sarcoma) = test system: ES1 (Ewing's Sarcoma)
Method in brief: as §1

[5] = test system: EVSA-T (Breast Carcinoma)
Method in brief: as §1

[6] = test system: K-562 (Chronic Myelogenous Leukemia)
Method in brief: as §1

[7] = test system: MFM-223 (Breast Carcinoma)
Method in brief: as §1

[8] = test system: MKN28 (Gastric Carcinoma)
Method in brief: as §1

[9] = test system: MOLT-16 (T-Lymphoblastic Leukemia)
Method in brief: as §1

[10] = test system: NCI-H1792 (Lung Adenocarcinoma)
Method in brief: as §1

[11] = test system: P12-ICHIKAWA (T-Lymphoblastic Leukemia)
Method in brief: as §1

[12] = test system: SW837 (Colorectal Carcinoma)
Method in brief: as §1

TC-71 (Ewing's Sarcoma) = test system: TC-71 (Ewing's Sarcoma)
Method in brief: as §1

[13] = test system: TE-6 (Esophageal Squamous Cell Carcinoma)
Method in brief: as §1

[14] = test system: TOV-112D (Ovarian Carcinoma)
Method in brief: as §1

U251 (Low Grade Glioma) = test system: U251 (Low Grade Glioma)
Method in brief: as §1

WIL2-NS (Non-Cancerous) = test system: WIL2-NS (Non-Cancerous)
Method in brief: as §1

WM-115 (Melanoma) = test system: WM-115 (Melanoma)
Method in brief: as §1

Compound	combination Emax [1]	combination Emax [2]	combination Emax [3]	combination Emax [4]	combination Emax (ES1 (Ewing's Sarcoma))	combination Emax [5]	combination Emax [6]	combination Emax [7]	combination Emax [8]	combination Emax [9]	combination Emax [10]	combination Emax [11]	combination Emax [12]	combination Emax (TC-71 (Ewing's Sarcoma))	combination Emax [13]	combination Emax [14]	combination Emax (U251 (Low Grade Glioma))	combination Emax (WIL2-NS (Non-Cancerous))	combination Emax (WM-115 (Melanoma))
Cn1cnc2c(F)c(Nc3ccc(Br)cc3Cl)c(C(=O)NOCCO)cc21 [Selumetinib] + C[C@@H]1COCCN1C2=NC(=NC(=C2)C3(CC3)[S@](=N)(=O)C)C4=C5C=CNC5=NC=C4 [AZD6738] (first compound max 10 µM, 7x7, partner max 10 µM)	0.319	0.466	0.897	0.844	0.898	0.222	0.866	0.673	0.202	1	0.76	0.988	0.544	0.945	0.671	0.657	0.443	0.922	0.617
C[C@@H](c1ccc2nccn2c1)n1nnc2ncc(-c3cnn(C)c3)nc21 [Savolitinib] + Cc1c2c(nn1C)CSCc1cc(n(C)n1)CSc1cc(c3ccccc3c1)OCCCc1c(C(=O)O)n(C)c3c-2c(Cl)ccc13 [AZD5991] (first compound max 1 µM, 7x7, partner max 1 µM)	0.494	0.161	0.172	0.257	0.743	1	0.159	0.244	0.0861	1	0.214	0.29	0.124	0.412	0.308	0.395	0.217	0.0914	0.185
COc1nnc2ccc(N3CCC(c4ccc(OCCN5CCN(C)C(=O)[C@H]5C)cc4)CC3)nn12 [AZD5153] + CC1(C)CCC(CN2CCN(c3ccc(C(=O)NS(=O)(=O)c4ccc(NCC5CCOCC5)c([N+](=O)[O-])c4)c(Oc4cnc5[nH]ccc5c4)c3)CC2)=C(c2ccc(Cl)cc2)C1 [Venetoclax] (first compound max 1 µM, 7x7, partner max 1 µM)	0.456	0.408	0.835	0.586	0.482	0.938	0.437	0.305	0.446	1	0.676	0.932	0.551	0.657	0.572	0.588	0.449	0.807	0.365
NC1(C(=O)N[C@@H](CCO)c2ccc(Cl)cc2)CCN(c2ncnc3[nH]ccc23)CC1 [Capivasertib] + COc1nnc2ccc(N3CCC(c4ccc(OCCN5CCN(C)C(=O)[C@H]5C)cc4)CC3)nn12 [AZD5153] (first compound max 10 µM, 7x7, partner max 1 µM)	0.928	0.396	0.679	0.718	0.694	1	0.528	0.852	0.488	1	0.537	0.994	0.538	0.797	0.754	0.665	0.578	0.848	0.778
NC1(C(=O)N[C@@H](CCO)c2ccc(Cl)cc2)CCN(c2ncnc3[nH]ccc23)CC1 [Capivasertib] + C[C@@H]1COCCN1C2=NC(=NC(=C2)C3(CC3)[S@](=N)(=O)C)C4=C5C=CNC5=NC=C4 [AZD6738] (first compound max 10 µM, 7x7, partner max 10 µM)	0.684	0.237	0.886	0.779	0.972	0.959	0.866	0.888	0.296	1	0.767	1	0.385	0.959	0.754	0.718	0.444	0.919	0.628
C[C@@H](c1ccc2nccn2c1)n1nnc2ncc(-c3cnn(C)c3)nc21 [Savolitinib] + CN(CC[C@H](CSC1=CC=CC=C1)NC2=C(C=C(C=C2)S(=O)(=O)NC(=O)C3=CC=C(C=C3)N4CCC(CC4)[C@H](C5=CC=CC=C5C6=CC=C(C=C6)Cl)O)S(=O)(=O)C(F)(F)F)CCO [AZD4320] (first compound max 1 µM, 7x7, partner max 1 µM)		0.226		0.495		0.248		0.225		1		1		0.585	0.427	0.0682	0.176		
CC(=O)c1c(C)c2cnc(Nc3ccc(N4CCNCC4)cn3)nc2n(C2CCCC2)c1=O [Palbociclib] + CN(CC[C@H](CSC1=CC=CC=C1)NC2=C(C=C(C=C2)S(=O)(=O)NC(=O)C3=CC=C(C=C3)N4CCC(CC4)[C@H](C5=CC=CC=C5C6=CC=C(C=C6)Cl)O)S(=O)(=O)C(F)(F)F)CCO [AZD4320] (first compound max 10 µM, 7x7, partner max 1 µM)		0.354		0.812		0.444		0.406		1		1		0.828	0.363	0.584	0.294		
